Source: PMC11928584, “H105A peptide eye drops promote photoreceptor survival in murine and human models of retinal degeneration” (Communications Medicine, 2025)
Where a SMILES comes first, the peptide text is derived from it.

Tests used:
Format in all cases: in vivo, mouse
[1] = system: photoreceptors of rd10/Serpinf1-/- mice; test: ONL thickness (histology, spider plot), rd10/Serpinf1-/- mice; details: daily eye drops, P21
Protocol: Both eyes were oriented before enucleation to allow sectioning along the dorsal/ventral axis. Enucleated eyes from rd10 and rd10/Serpinf1^-/- mice were incised in the cornea and fixed in 2.5% glutaraldehyde for 20 min and then in 10% neutral buffered formalin at 4 °C for at least 48 h, followed by paraffin embedding, sectioning, and staining with either H&E or immunofluorescence procedures. […] For fluorescence microscopy, antibodies, and 0.1 µg/ml DAPI were used to immunostain and counterstain the nuclei, respectively. […] Fluorescence intensity was quantified using ImageJ, and a rectangle was selected around regions of interest (ROIs), channels were split for multiple antibodies, threshold was adjusted, noise was de-speckled, and fluorescence intensity was measured.
To generate spider plots, the ONL thickness was measured from images passing through the optic nerve (ON) acquired with light microscopy of the retina sections stained with H&E or images of retina sections stained with DAPI with a dorsal-ventral orientation. The ONL thickness in the entire retina sections was measured at 5 different positions from both sides of the ON using ImageJ[28]. […]

[2] = system: photoreceptors of rd10/Serpinf1-/- mice; test: PSVue-550 fluorescence fundoscopy of photoreceptor cell death (PS externalization); details: daily eye drops 5 µl of 1 mg/ml from P15, PSVue-550 fundoscopy P21
Text: (§1) Fluorescence fundoscopy with a cell death probe was chosen as a simple method for monitoring photoreceptor cell death in alive animals. A fluorescent probe, bis (zinc^2+-dipicolylamine)-550, (PSVue®-550) (Molecular Targeting Technologies Inc, cat. P-1005) was reconstituted in Hanks’ Balanced Salt Solution (HBSS, Quality Biological, cat. 114-062-101) according to the manufacturer’s instructions[28],[36]. This probe is suitable for in vivo use to specifically and transiently label dying photoreceptors, such as in living rats with retinal degeneration the Royal College of Surgeons rat model, in a non-invasive and non-toxic method without the need of intraocular injection. Briefly, a stock of 1 mM solution of PSVue®-550 was stored in the dark at 4 °C and used within 14 days directly as eye drop. After 3-4 h of light onset each mouse received eye drops of 5–10 μl of 1 mM PSVue®-550 in the left eye and HBSS in the right eye as control. The eye drop volume was chosen such that the eye cavity was filled without spillage outside the eye, and it was modified depending on eye size. […] To obtain in vivo retinal images of fundi, at 24 h after the probe was administered, the mice were anesthetized, and pupils were dilated with 1% tropicamide for 5 min and kept hydrated with GenTeal. Fluorescence was imaged using a retinal imaging microscope (Micron III, Phoenix Research Labs) using an FF02- 475/50 nm excitation filter (Semrock, Inc.). We observed some variability in optic nerve (ON) fluorescence that could not be readily explained, so the optic nerve was excluded from analyses in all samples.
(§2) To determine the natural history of photoreceptor death of rd10 and rd10/Serpinf1^-/- mice, we assessed photoreceptor cell death in live mice using the fluorescent probe termed PSVue® 550 to monitor PS externalization by fluorescence fundoscopy (Supplementary Fig. 2). Given the reports about the retinas of rd10 mice starting to show histological changes at P16, and with a peak in the number of TUNEL+ nuclei in the ONL at P17-18[13], we monitored PS externalization in photoreceptors of these mice undergoing degeneration before death onset. Eye drops of 1 mM PSVue® 550 solution in HBSS were administered to left eyes and HBSS (vehicle) to their contralateral right eyes of each mouse at ages P16, P20, P22 or P24. PS externalization was determined by fluorescence fundoscopy 24 h post-administration. PSVue labeling of phosphatidylserine (PS) externalization associated with photoreceptor cell death in the rd10 retina (Supplementary Figs. 2, 3).
(§3) Fig. 2 Effect of PEDF peptide eye drops on protection against photoreceptor cell death in rd10 and rd10/Serpinf1^-/- mice. a Illustration of the experimental timeline of peptide application. Eye drops containing 5 µl of 17-mer, H105A, or R99A peptides in HBSS were administered daily to eyes of rd10 and rd10/Serpinf1^-/- mice from P15 to P20. Vehicle (HBSS) was applied in contralateral eyes. At P20, PSVue® was applied via eye drops, and fluorescence fundoscopy was conducted at P21 to assess photoreceptor cell death. RE and LE refer to the right and left eyes, respectively. b Fluorescence fundoscopy micrographs. Representative fluorescence fundoscopy images of retinas from mice treated as in Panel a with eyedrops of 1 mg/ml of each peptide. Quantification of fluorescence intensity was performed using ImageJ, with average intensity values corrected for background fluorescence from eyes that had not received PSVue or peptides. Each line represents data from one animal comparing treated and contralateral eyes, with five eyes (n = 5) per condition. Statistical significance was determined by paired t-test (****p ≤ 0.0001, and ns > 0.05). Scale bar = 0.5 mm. c Dose response of peptide eye drops. Representative fluorescence fundoscopy micrographs showing retinas treated with varying concentrations of 17-mer and H105A peptides (0.0 mg/ml to 1.0 mg/ml) in rd10 and rd10/Serpinf1^-/- mice. […]

[3] = system: photoreceptors of rd10 mice; test: as above; details: for PS externalization / photoreceptor cell death vs vehicle: daily eye drops 5 µl of 1 mg/ml from P15, PSVue-550 fundoscopy P21
Text: as §1, §2, §3

| SMILES | OS length and ONL thickness vs vehicle-treated or untreated eyes [1] | PS externalization / photoreceptor cell death vs vehicle [2] | PS externalization / photoreceptor cell death vs vehicle [3] | eye drop concentration effective in restraining PS externalization (as low as) ([3]; titration 0.0-1.0 mg/ml, daily eye drops) |
| --- | --- | --- | --- | --- |
| CC[C@H](C)[C@H](NC(=O)[C@H](CC(C)C)NC(=O)[C@H](CC(=O)O)NC(=O)[C@H](Cc1ccc(O)cc1)NC(=O)[C@H](Cc1ccc(O)cc1)NC(=O)[C@H](CC(C)C)NC(=O)[C@H](C)NC(=O)[C@H](CCCNC(=N)N)NC(=O)[C@H](C)NC(=O)[C@@H](NC(=O)[C@@H](NC(=O)[C@H](CO)NC(=O)[C@H](CCC(=O)O)NC(=O)[C@@H](NC(=O)[C@H](CCCNC(=N)N)NC(=O)[C@@H](N)CCC(N)=O)[C@@H](C)O)[C@@H](C)CC)[C@@H](C)CC)C(=O)N[C@@H](CO)C(=O)O [H105A] (H-QRTESIIARALYYDLIS-OH) | longer OS and thicker outer nuclear layer | diminished fundi fluorescence | diminished fundi fluorescence | 0.5 mg/mL |
| CC[C@H](C)[C@H](NC(=O)[C@H](CC(C)C)NC(=O)[C@H](CC(=O)O)NC(=O)[C@H](Cc1ccc(O)cc1)NC(=O)[C@H](Cc1ccc(O)cc1)NC(=O)[C@H](CC(C)C)NC(=O)[C@H](C)NC(=O)[C@H](CCCNC(=N)N)NC(=O)[C@H](Cc1c[nH]cn1)NC(=O)[C@@H](NC(=O)[C@@H](NC(=O)[C@H](CO)NC(=O)[C@H](CCC(=O)O)NC(=O)[C@@H](NC(=O)[C@H](C)NC(=O)[C@@H](N)CCC(N)=O)[C@@H](C)O)[C@@H](C)CC)[C@@H](C)CC)C(=O)N[C@@H](CO)C(=O)O [R99A] (H-QATESIIHRALYYDLIS-OH) | no effect | no major efficacy | no major efficacy | – |
